Source: US12673120B2, “Fluorescently-traceable amino acid derivative and preparation methods and use thereof” (priority 2020, dated 2026)
Where two headings read alike, the source gives them in different places.

Legend:
[1] = tested on: HCT116 (human colon cancer cells); assay: In vitro anti-tumor cell proliferation activity (MTT method), HCT116; type: cell-based; conditions: read-out: IC50 values of in vitro anti-cell proliferation activity
Method: (§2) Tested cell lines S180 (mouse ascites tumor cells), LLC (mouse lung cancer cells), A549 (human non-small cell lung cancer cells), HCT116 (human colon cancer cells), U2Os (human osteosarcoma cells), and MCF-7 (human breast cancer cells) each were purchased from Nanjing KeyGen Biotech.
(§3) When preparing a test sample, the test compound was prepared into a sample solution with a concentration of 500 μM (with a final concentration 100 μM) by a PBS buffer containing 0.5% DMSO, which was used for preliminary screening of an anti-cell proliferation experiment in vitro.
(§4) Positive control group: doxorubicin, prepared to a required concentration with PBS buffer containing 0.5% DMSO; negative control group: a PBS buffer containing 0.5% DMSO; blank group: a PBS buffer containing 0.01% DMSO.

[2] = tested on: S180 (mouse ascites tumor cells); assay: In vitro anti-tumor cell proliferation activity (MTT method), S180; type: cell-based; conditions: read-out: IC50 values of in vitro anti-cell proliferation activity
Method: as §2, §3, §4

[3] = Nanomorphology characterization and stability (TEM, SEM, hydration particle size, Zeta potential); type: physicochemical; conditions: for Nanomorphology (shape): TEM and SEM; for Hydration particle size change / Zeta potential change: measured continuously for 72 h; for Hydration particle size: pH=7.0 versus other pH values, 72 h; for Zeta potential change: solutions at different pH values
Excerpt: The nanomorphology of compounds ZD-B and ZD-E-1 were studied by TEM and SEM, and hydration particle size and Zeta potential of the two compounds in a solution were studied by a nanometer particle size analyzer. The results were shown in FIG. 1A-H. In FIG. 1A-H, FIG. 1A was a TEM image of the compound ZD-B; FIG. 1B was a TEM image of the compound ZD-E-1; FIG. 1C was a SEM image of the compound ZD-B; FIG. 1D was a SEM image of the compound ZD-E-1; FIG. 1E was a hydration particle size change curve of the compound ZD-B in solutions at different pH values within 72 h (0.5 h, 24 h, 48 h, and 72 h); FIG. 1F was a hydration particle size change curve of the compound ZD-E-1 in solutions at different pH solutions within 72 h; FIG. 1G was a Zeta potential change curve of the compound ZD-B in solutions at different pH values within 72 h; and FIG. 1H was a Zeta potential change curve of the compound ZD-E-1 in solutions at different pH values within 72 h.

[4] = tested on: A549 (human non-small cell lung cancer cells); assay: In vitro anti-tumor cell proliferation activity (MTT method), A549; type: cell-based; conditions: read-out: IC50 values of in vitro anti-cell proliferation activity
Method: as §2, §3, §4

[5] = Viscera-weight ratio / toxicity in tumor-bearing mice; type: in vivo, male ICR mice; conditions: for Effect on liver weight (viscera-weight ratio) compared with Vehicle group / Effect on brain weight (viscera-weight ratio) compared with Vehicle group: FIG. 5; for Effect on liver weight (viscera-weight ratio) compared with Vehicle group: ZD-E-1 at high dosages (10 μmol/kg and 5 μmol/kg); for Effect on brain weight (viscera-weight ratio) compared with Vehicle group: ZD-E-1 at three dosages
Method: (§1) The specific method included: drugs were administered to tumor-forming mice by group for 7 consecutive days, a length of the tumor was measured every other day to calculate a tumor volume. 24 h after the last administration, the mice were weighed, anesthetized with diethyl ether, and eyeballs were removed to collect blood; the obtained whole blood was centrifuged at 1,000 rpm for 10 min, and a serum was absorbed for later use. The mice were sacrificed by neck dislocation, and the tumor mass and various organs were stripped and weighed (it was ensured that the operation was done as soon as possible and the stripping was complete and clean). The tumor inhibition rate was calculated by formula b, the results were shown in Table 2 and FIG. 2; and by calculating a viscera-weight ratio of each organ, and it was analyzed whether the test compound had obvious physiological effects on the mouse organs.
After a preliminary study on the in vivo anti-tumor growth activity of different amino acid main compounds, ZD-A, ZD-B, ZD-E-1, and ZD-E-1 with an increased side-chain methylene unit (ZD-F-1) were selected; three dosages of 10 μmol/kg, 5 μmol/kg, and 2 μmol/kg were set to evaluate the inhibitory ability of the four compounds on tumor growth in mice. […] Afterwards, the tumor growth trend and the viscera-weight ratio of the two compounds on mice were analyzed to compare the anti-tumor growth ability and toxicity of the two compounds. The results were shown in FIG. 4 and FIG. 5: after one-way analysis of variance, * meant that compared with the Vehicle group, there was a difference, P<0.05; ** represented a significant difference compared with the Vehicle group, P<0.01.

[6] = tested on: U2Os (human osteosarcoma cells); assay: In vitro anti-tumor cell proliferation activity (MTT method), U2Os; type: cell-based; conditions: 48 h, read-out: IC50 values of in vitro anti-cell proliferation activity
Method: as §2, §3, §4

[7] = Water solubility; type: physicochemical; conditions: decides the injection route
[8] = tested on: MCF-7 (human breast cancer cells); assay: In vitro anti-tumor cell proliferation activity (MTT method), MCF-7; type: cell-based; conditions: read-out: IC50 values of in vitro anti-cell proliferation activity
Method: as §2, §3, §4

[9] = tested on: mouse S180 sarcoma model; assay: Inhibition of tumor growth in vivo (mouse S180 sarcoma model); design: species or system male ICR mice; conditions: for Tumor growth trend in mice: FIG. 4, ZD-E-1 versus ZD-F-1; for Average tumor weight: Mean ± SD, n 10
Method: The mice used in the experiment were male ICR mice of SPF grade, weighing 20 g±2 g, purchased from Beijing Vital River Laboratory Animal Technology Co., Ltd., and raised in an animal barrier of the Experimental Animal Department of Capital Medical University.
as §1

[10] = tested on: LLC (mouse lung cancer cells); assay: In vitro anti-tumor cell proliferation activity (MTT method), LLC; type: cell-based; conditions: 48 h, read-out: IC50 values of in vitro anti-cell proliferation activity
Method: as §2, §3, §4

[11] = Table 2, 10 μmol/kg, ip, 7 consecutive days
[12] = three dosages 10, 5, 2 μmol/kg, iv

Row | SMILES | IC50 ([1]; HCT116, 48 h, Mean ± SD) | IC50 ([2]; S180, 48 h, Mean ± SD) | Nanomorphology (shape) [3] | Hydration particle size change ([3]; pH=2.0) | Hydration particle size change ([3]; pH=5.5) | Hydration particle size [3] | Zeta potential change [3] | IC50 ([4]; A549, 48 h, Mean ± SD) | Effect on liver weight (viscera-weight ratio) compared with Vehicle group [5] | Effect on brain weight (viscera-weight ratio) compared with Vehicle group [5] | IC50 ([6]; U2Os, Mean ± SD) | Water solubility [7] | IC50 ([8]; MCF-7, 48 h, Mean ± SD) | Anti-tumor growth activity (in words) ([9]; 10 μmol/kg, ip) | Average tumor weight compared with Vehicle group (one-way analysis of variance) ([9]; 10 μmol/kg, ip) | Tumor growth trend in mice [9] | Tumor Inhibition Rate [9, 11] | Average tumor weight [9, 11] | Tumor Inhibition Rate ([9]; Table 3, 2 μmol/kg, iv) | IC50 ([10]; LLC, Mean ± SD) | also measured
1 | N=C(CCl)NCCC[C@H](Nc1ccc([N+](=O)[O-])c2nonc12)C(=O)NCc1ccccc1 [ZD-E-1, (S)—N-benzyl-5-(2-chloroacetimido)-2-((7-nitro-2,1,3-benzoxadiazol-4-yl)amino)pentaneamide] | 22.6 ± 1.45 µM | 24.6 ± 1.72 µM | shape of a ball | particle size hardly changed | particle size increased and then decreased | smallest particle size at pH=7.0 | neither ZD-B nor ZD-E-1 had an obvious change | 45.5 ± 0.672 µM | different from those in the Vehicle group | different from those in the Vehicle group | 28.8 ± 1.14 µM | had no such concerns | 40.5 ± 1.91 µM | most prominent activities | significantly different from that of Vehicle group | roughly the same | 40.01% | 1.072 ± 0.386 g | 39.23% | 26.1 ± 2.58 µM | Toxic side effects ([5]; mice, compared with ZD-F-1): more obvious toxic side effects, causing liver failure and brain lesions in mice; Average tumor weight ([9]; Table 3, 2 μmol/kg, iv): 1.042 ± 0.205 g; Tumor Inhibition Rate ([9]; Table 3, 5 μmol/kg, iv): 41.65%; Average tumor weight ([9]; Table 3, 5 μmol/kg, iv): 1.001 ± 0.196 g; Tumor Inhibition Rate ([9]; Table 3, 10 μmol/kg, iv): 42.73%; Average tumor weight ([9]; Table 3, 10 μmol/kg, iv): 0.982 ± 0.300 g; Anti-tumor growth activity (in words) [9, 12]: desirable and stable anti-tumor growth activity; Average tumor weight compared with Vehicle group (one-way analysis of variance) [9, 12]: significant differences compared with the Vehicle group; Average tumor weight compared with the YW3-56 group [9, 12]: no difference compared with the YW3-56 group
2 | N=C(CCl)NCCCC[C@H](Nc1ccc([N+](=O)[O-])c2nonc12)C(=O)NCc1ccccc1 [ZD-F-1, NBD-Lys(C1)-NBzl] | 38.9 ± 2.05 µM | 23.7 ± 2.29 µM | – | – | – | – | – | > 100 µM | no difference | no difference | 45.7 ± 1.68 µM | had no such concerns | 68.7 ± 1.5 µM | – | – | roughly the same | – | – | 13.32% | > 100 µM | Average tumor weight ([9]; Table 3, 2 μmol/kg, iv): 1.487 ± 0.660 g; Tumor Inhibition Rate ([9]; Table 3, 5 μmol/kg, iv): 30.54%; Average tumor weight ([9]; Table 3, 5 μmol/kg, iv): 1.191 ± 0.407 g; Tumor Inhibition Rate ([9]; Table 3, 10 μmol/kg, iv): 39.99%; Average tumor weight ([9]; Table 3, 10 μmol/kg, iv): 1.029 ± 0.423 g
3 | N=C(NCCC[C@H](Nc1ccc([N+](=O)[O-])c2nonc12)C(=O)OCc1ccccc1)N[N+](=O)[O-] [ZD-A, NBD-Arg(NO2)-OBzl] | – | – | – | – | – | – | – | – | – | – | – | poor water solubility | – | – | different from that of Vehicle group | – | 36.19% | 1.140 ± 0.437 g | – | – | IC50 ([1]; Homo sapiens, HCT-116, 48 h): > 100 µM; IC50 ([2]; Mus musculus, S-180, 48 h): > 100 µM; IC50 ([4]; Homo sapiens, A549, 48 h): > 100 µM; IC50 ([6]; Homo sapiens, U2OS): > 100 µM; IC50 ([8]; Homo sapiens, MCF7, 48 h): > 100 µM; Tumor Inhibition Rate ([9]; Table 3, 2 μmol/kg, ip): 23.36%; Average tumor weight ([9]; Table 3, 2 μmol/kg, ip): 1.315 ± 0.338 g; Tumor Inhibition Rate ([9]; Table 3, 5 μmol/kg, ip): 28.20%; Average tumor weight ([9]; Table 3, 5 μmol/kg, ip): 1.232 ± 0.102 g; Tumor Inhibition Rate ([9]; Table 3, 10 μmol/kg, ip): 29.78%; Average tumor weight ([9]; Table 3, 10 μmol/kg, ip): 1.204 ± 0.438 g; IC50 ([10]; Mus musculus): > 100 µM
4 | CC(C)C[C@H](Nc1ccc([N+](=O)[O-])c2nonc12)C(=O)N[C@H](C(=O)OCc1ccccc1)C(C)C [ZD-B, NBD-LV-OBzl] | > 100 µM | 74.4 ± 10.1 µM | shape of a strip | great change in particle size | great change in particle size | smallest particle size at pH=7.0 | neither ZD-B nor ZD-E-1 had an obvious change | > 100 µM | – | – | 86.4 ± 5.3 µM | poor water solubility | – | most prominent activities | significantly different from that of Vehicle group | – | 44.60% | 0.990 ± 0.180 g | – | 96.5 ± 6.85 µM | Tumor Inhibition Rate ([9]; Table 3, 2 μmol/kg, ip): 17.00%; Average tumor weight ([9]; Table 3, 2 μmol/kg, ip): 1.424 ± 0.434 g; Tumor Inhibition Rate ([9]; Table 3, 5 μmol/kg, ip): 35.64%; Average tumor weight ([9]; Table 3, 5 μmol/kg, ip): 1.104 ± 0.218 g; Tumor Inhibition Rate ([9]; Table 3, 10 μmol/kg, ip): 41.23%; Average tumor weight ([9]; Table 3, 10 μmol/kg, ip): 1.008 ± 0.472 g
